Source: ChEMBL document CHEMBL5257123, “Synthesis of 6-alkoxy and 6-hydroxy-alkyl amine derivatives of braylin as vasorelaxing agents” (Bioorg Med Chem Lett, 2023)
Activity calls are given as the source filed them. The rule behind the calls is not given here.

Columns and labels:
[1] = organism: Rattus norvegicus; experiment: Vasorelaxant activity in U46619-induced preconstricted rat endothelium-intact main mesenteric artery assessed as relaxation response at 30 uM relative to control; format: functional
[2] = organism: Rattus norvegicus; experiment: Vasorelaxant activity in U46619-induced preconstricted rat endothelium-intact main mesenteric artery assessed as relaxation response; format: functional
[3] = system: BV-2; experiment: Anti-neuroinflammatory activity in mouse BV2 cells assessed as reduction in LPS-induced TNFalpha production at 10 uM preincubated for 30 mins followed by LPS stimulation measured after 24 hrs by ELISA; format: functional, cell-based; conditions: time 24.5 hrs
[4] = system: BV-2; experiment: Anti-neuroinflammatory activity in mouse BV2 cells assessed as reduction in LPS-induced IL-6 production at 10 uM preincubated for 30 mins followed by LPS stimulation measured after 24 hrs by ELISA; format: functional, cell-based; conditions: time 24.5 hrs
[5] = Cytotoxicity against VSMC (unknown origin) cells assessed as cell survival at 1 uM measured after 12 hrs by MTT assay; format: toxicity, cell-based; conditions: read-out: Activity
[6] = Cytotoxicity against VSMC (unknown origin) cells assessed as cell survival at 10 uM measured after 12 hrs by MTT assay; format: toxicity, cell-based; conditions: read-out: Activity
[7] = organism: Rattus norvegicus; experiment: Vasorelaxant activity in U46619-induced preconstricted rat endothelium-intact main mesenteric artery assessed as relaxation response at 10 uM (reference value: 9.08 +/- 1.25 mN); format: functional; design: scale not given: the % may be the effect or the level left
[8] = organism: Rattus norvegicus; experiment: Vasorelaxant activity in rat endothelium-intact main mesenteric artery assessed as relaxation response at 10 uM; format: functional
[9] = organism: Rattus norvegicus; experiment: Vasorelaxant activity in rat endothelium-denuded main mesenteric artery assessed as relaxation response at 10 uM; format: functional
[10] = organism: Rattus norvegicus; experiment: Vasorelaxant activity in U46619 induced preconstricted rat endothelium-intact thoracic aortic rings assessed as vasorelaxation response; format: functional; conditions: Thoracic aorta
[11] = organism: Rattus norvegicus; experiment: Vasorelaxant activity in U46619-induced contraction in rat endothelium-denuded main mesenteric arterial ring assessed as relaxation response; format: functional; conditions: Mesenteric artery
[12] = organism: Rattus norvegicus; experiment: Vasorelaxant activity in U46619-induced contraction in rat endothelium-denuded main mesenteric arterial ring assessed as relaxation response relative to control; format: functional; conditions: Mesenteric artery
[13] = organism: Rattus norvegicus; experiment: Vasorelaxant activity in U46619-induced contraction rat endothelium-intact main mesenteric arterial rings assessed as relaxation response relative to control; format: functional; conditions: Mesenteric artery
[14] = organism: Rattus norvegicus; experiment: Vasorelaxant activity in U46619-induced contraction rat endothelium-intact main mesenteric arterial rings assessed as relaxation response; format: functional; conditions: Mesenteric artery
[15] = organism: Rattus norvegicus; experiment: Vasorelaxant activity in MKHS-induced preconstricted rat main mesenteric arterial rings assessed as relaxation response; format: functional; conditions: Mesenteric artery

Q: For `CCN(CC)CC(O)COc1cc2ccc(=O)oc2c2c1OC(C)(C)C=C2` (stereo not given), which Emax at 30 µM [1] is on record?
A: Its Emax at 30 µM is < 50%.

Q: With `COc1cc2ccc(=O)oc2c2c1OC(C)(C)C=C2` as the compound, how does the EC50 ([2]; read-out: EC50) read?
A: The EC50 was 1580 nM.

Q: What about the EC50 ([2]; read-out: pEC50 (converted)) of the same compound?
A: The EC50 was 1580 nM.

Q: And the Activity [3]?
A: Its Activity is “Active”.

Q: What about the Activity [4] of the same compound?
A: Its Activity is “Active”.

Q: What about the viability at 12 h, 1 µM [5] of the same compound?
A: The viability at 12 h, 1 µM was 101%.

Q: What about the viability at 12 h, 10 µM [6] of the same compound?
A: Its viability at 12 h, 10 µM is 95.2%.

Q: Which Emax at 30 µM [1] does the source give for `CC1(C)C=Cc2c(ccc3ccc(=O)oc23)O1` [SESALIN] here?
A: Its Emax at 30 µM is 60.8%.

Q: And the EC50 ([2]; read-out: EC50)?
A: Its EC50 is 2120 nM.

Q: And the EC50 ([2]; read-out: pEC50 (converted))?
A: Its EC50 is 2140 nM.

Q: What about the Activity [3] of the same compound?
A: Its Activity is “Active”.

Q: And the Activity [4]?
A: The Activity was “Active”.

Q: Which Emax at 30 µM [1] does the source give for `CC1(C)C=Cc2c(c(OCC(O)CN3CCNCC3)cc3ccc(=O)oc23)O1` (stereo not given) here?
A: The Emax at 30 µM was < 50%.

Q: For `CC1(C)C=Cc2c(c(OCC(O)CN3CCOCC3)cc3ccc(=O)oc23)O1` (stereo not given), which Emax at 30 µM [1] is on record?
A: Its Emax at 30 µM is < 50%.

Q: What does the source list for `CC(=O)OCC[N+](C)(C)C` [ACETYLCHOLINE]?
A: Activity [7]: 88.4%; Activity [8]: Active; Activity [9]: inactive

Q: With `CC(C)Oc1cc2ccc(=O)oc2c2c1OC(C)(C)C=C2` as the compound, how does the Emax at 30 µM [1] read?
A: The Emax at 30 µM was < 50%.

Q: Which Emax at 30 µM [1] does the source give for `CC(C)N(CC(O)COc1cc2ccc(=O)oc2c2c1OC(C)(C)C=C2)C(C)C` (stereo not given) here?
A: Its Emax at 30 µM is < 50%.

Q: With `CC1(C)C=Cc2c(c(OCC3CO3)cc3ccc(=O)oc23)O1` (stereo not given) as the compound, how does the Emax at 30 µM [1] read?
A: The Emax at 30 µM was < 50%.

Q: Which results are given for `CC1(C)C=Cc2c(c(O)cc3ccc(=O)oc23)O1`?
A: Activity [3]: Active; Activity [4]: Active

Q: With `CC1(C)C=Cc2c(c(OCC(O)CN3CCCCC3)cc3ccc(=O)oc23)O1` (stereo not given) as the compound, how does the Emax at 30 µM [1] read?
A: The Emax at 30 µM was < 50%.

Q: With `CCCCOc1cc2ccc(=O)oc2c2c1OC(C)(C)C=C2` as the compound, how does the Emax at 30 µM [1] read?
A: Its Emax at 30 µM is < 50%.

Q: For `CC1(C)C=Cc2c(c(OCC(O)CNCc3ccccn3)cc3ccc(=O)oc23)O1` (stereo not given), which Emax at 30 µM [1] is on record?
A: The Emax at 30 µM was < 50%.

Q: Which Emax at 30 µM [1] does the source give for `CCCCN(C)CC(O)COc1cc2ccc(=O)oc2c2c1OC(C)(C)C=C2` (stereo not given) here?
A: Its Emax at 30 µM is < 50%.

Q: For `CCCOc1cc2ccc(=O)oc2c2c1OC(C)(C)C=C2`, which Emax at 30 µM [1] is on record?
A: Its Emax at 30 µM is 80.6%.

Q: And the EC50 ([2]; read-out: EC50)?
A: Its EC50 is 1900 nM.

Q: What about the EC50 ([2]; read-out: pEC50 (converted)) of the same compound?
A: Its EC50 is 2040 nM.

Q: What about the Activity [10] of the same compound?
A: The Activity was “Dose-Dependent Effect”.

Q: What about the EC50 [11] of the same compound?
A: Its EC50 is 339 nM.

Q: What about the Emax [12] of the same compound?
A: The Emax was 85%.

Q: And the Emax [13]?
A: Its Emax is 80.6%.

Q: And the EC50 [14]?
A: The EC50 was 2040 nM.

Q: And the Activity [15]?
A: Its Activity is “Active”.

Q: What about the Activity [3] of the same compound?
A: The Activity was “Active”.

Q: And the Activity [4]?
A: The Activity was “Active”.

Q: And the viability at 12 h, 1 µM [5]?
A: The viability at 12 h, 1 µM was 107%.

Q: What about the viability at 12 h, 10 µM [6] of the same compound?
A: Its viability at 12 h, 10 µM is 105%.

Q: For `CCN1CCN(CC(O)COc2cc3ccc(=O)oc3c3c2OC(C)(C)C=C3)CC1` (stereo not given), which Emax at 30 µM [1] is on record?
A: Its Emax at 30 µM is < 50%.

Q: Which Emax at 30 µM [1] does the source give for `CN1CCN(CC(O)COc2cc3ccc(=O)oc3c3c2OC(C)(C)C=C3)CC1` (stereo not given) here?
A: Its Emax at 30 µM is < 50%.

Q: With `CCCCCN(C)CC(O)COc1cc2ccc(=O)oc2c2c1OC(C)(C)C=C2` (stereo not given) as the compound, how does the Emax at 30 µM [1] read?
A: The Emax at 30 µM was < 50%.

Q: Which Activity [3] does the source give for `COc1cc2ccc(=O)oc2cc1O` [SCOPOLETIN] here?
A: Its Activity is “Active”.

Q: What about the Activity [4] of the same compound?
A: Its Activity is “Active”.

Q: What about the viability at 12 h, 1 µM [5] of the same compound?
A: The viability at 12 h, 1 µM was 91.2%.

Q: And the viability at 12 h, 10 µM [6]?
A: Its viability at 12 h, 10 µM is 102%.

Q: Which Emax at 30 µM [1] does the source give for `CN(C)CC(O)COc1cc2ccc(=O)oc2c2c1OC(C)(C)C=C2` (stereo not given) here?
A: The Emax at 30 µM was < 50%.

Q: With `CC1(C)C=Cc2c(c(OCC(O)CN3CCCC3)cc3ccc(=O)oc23)O1` (stereo not given) as the compound, how does the Emax at 30 µM [1] read?
A: Its Emax at 30 µM is < 50%.

Q: Which Emax at 30 µM [1] does the source give for `CCOc1cc2ccc(=O)oc2c2c1OC(C)(C)C=C2` here?
A: The Emax at 30 µM was 96.6%.

Q: What about the EC50 ([2]; read-out: pEC50 (converted)) of the same compound?
A: The EC50 was 200 nM.

Q: And the Activity [10]?
A: Its Activity is “Dose-Dependent Effect”.

Q: And the EC50 [11]?
A: The EC50 was 195 nM.

Q: And the Emax [12]?
A: Its Emax is 91.4%.

Q: And the Emax [13]?
A: Its Emax is 96.6%.

Q: And the EC50 [14]?
A: The EC50 was 200 nM.

Q: What about the Activity [15] of the same compound?
A: Its Activity is “Active”.

Q: What about the Activity [3] of the same compound?
A: Its Activity is “Active”.

Q: And the Activity [4]?
A: The Activity was “Active”.

Q: And the viability at 12 h, 1 µM [5]?
A: The viability at 12 h, 1 µM was 114%.

Q: And the viability at 12 h, 10 µM [6]?
A: The viability at 12 h, 10 µM was 105%.
